Data from PMC2981824 (Bioorganic & medicinal chemistry, 2010).
Converted amounts (≈) assume the structure as drawn. “And” between values parts separate entries of the source, which are not always exact repeats. Identical values can stand only once.

How the values were obtained:
PfFabI = target: T1, PfFabI (Plasmodium falciparum, UniProt Q9BH77); test: biochemical; assay type: biochemical; details: for Ki: Ki PfFabI
T1 sequence (Q9BH77 22-432): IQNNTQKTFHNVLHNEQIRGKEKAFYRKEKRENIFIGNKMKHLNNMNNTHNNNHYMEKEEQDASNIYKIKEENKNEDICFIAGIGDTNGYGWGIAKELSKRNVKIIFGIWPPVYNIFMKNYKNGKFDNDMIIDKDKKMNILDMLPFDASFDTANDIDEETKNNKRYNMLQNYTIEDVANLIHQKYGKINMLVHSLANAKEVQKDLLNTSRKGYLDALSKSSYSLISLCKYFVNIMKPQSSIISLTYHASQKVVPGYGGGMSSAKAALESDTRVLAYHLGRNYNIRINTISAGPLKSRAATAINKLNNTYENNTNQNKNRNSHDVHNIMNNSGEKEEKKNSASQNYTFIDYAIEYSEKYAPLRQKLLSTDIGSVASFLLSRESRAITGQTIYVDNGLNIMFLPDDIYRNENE

PfFabG = PfFabG (Plasmodium falciparum, UniProt Q8I2S7); test: biochemical; assay type: biochemical
P. falciparum K1 strain = assay type: cell-based; details: Plasmodium falciparum, K1, read-out: IC50 P. falciparum BS
[1] = system: late liver phases of P. berghei; details: cited from earlier work
LS development = details: cited from earlier work
L6 cells = test: Cytotoxicity against L6 cells; assay type: cell-based, rat; details: highest test concentration 90 μg/ml
[2] = system: P. yoelii liver stages (PyGFP sporozoites); test: Liver stage growth inhibition, flow cytometric; assay type: cell-based; details: Plasmodium yoelii, 43 h, read-out: IC50 P. yoelii LS FC
P. yoelii liver stages = test: Liver stage growth inhibition, immunofluorescence analysis; assay type: cell-based; details: Plasmodium yoelii, 43 h, read-out: IC50 P. yoelii LS IFA
PfFabZ = target: T2, PfFabZ (Plasmodium falciparum, UniProt Q965D7); test: biochemical; assay type: biochemical
T2 sequence (Q965D7 19-230): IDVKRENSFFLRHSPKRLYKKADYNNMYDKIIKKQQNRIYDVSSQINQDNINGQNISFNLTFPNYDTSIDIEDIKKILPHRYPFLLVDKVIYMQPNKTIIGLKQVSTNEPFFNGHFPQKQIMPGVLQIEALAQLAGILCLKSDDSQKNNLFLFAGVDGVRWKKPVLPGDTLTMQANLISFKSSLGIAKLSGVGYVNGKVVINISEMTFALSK

[3] = system: L. donovani strain MHOM/ET/67/L82; test: Leishmanicidal activity, axenic amastigotes; assay type: cell-based; details: Leishmania donovani, 72 h, read-out: IC50 Leishmania donovani
[4] = Cytotoxicity against L6 cells; assay type: cell-based, rat; details: rat
HepG2:CD81 cells = test: Toxicity to hepatoma cells; assay type: cell-based; details: FC (7-AAD) or IFA (DAPI)
[5] = target: mycobacterial InhA (MtFabI) enzyme; details: read-out: Ki InhA (MtFabI); competitive inhibition; cited from earlier work

In the case of `CCCCCCCCCCCCCCCC(=O)O` [PA, Palmitic acid, reference compound], the IC50 (PfFabI) is reported as greater than 390 µM and the IC50 (PfFabG) is reported as greater than 390 µM.

Molecule `CCCCCCC#CCCCCCCCC(=O)O` [9-HDA, 9-Hexadecynoic acid] has an IC50 (P. falciparum K1 strain) of 10.3 µg/mL (≈ 40.8 µM) and an IC50 (PfFabG) greater than 396 µM.

With `CCCCCCCCCC#CCCCCC(=O)O` [6-HDA, 6-Hexadecynoic acid] the IC50 (PfFabG) was greater than 396 µM.

In the case of `Oc1cc(Cl)ccc1Oc1ccc(Cl)cc1Cl` [triclosan], the “IC50 late liver phases of P. berghei” value [1] is listed as 11.4 µg/mL and the IC50 ([1]; read-out: IC50 late liver phases of P. berghei) is listed as 39.4 µM.

For `Oc1c(Cl)cc(Cl)c(Cl)c1Cc1c(O)c(Cl)cc(Cl)c1Cl` [hexachlorophene], the “IC50 LS development in vitro” value (LS development) is given as 1.95 µg/mL (≈ 4.79 µM) and the IC50 (LS development; read-out: IC50 LS development in vitro) is given as 4.8 µM.

In the case of `CCCCCCCCCCC#CCCCC(=O)O` [5-HDA, 5-Hexadecynoic acid], the IC50 (PfFabG) is reported as greater than 396 µM and the “Toxicity against L6 cells (in words)” value (L6 cells) is reported as “completely non-toxic”.

`CCCCCCCCCCCCCC#CC(=O)O` [2-HDA, 2-Hexadecynoic acid] showed an IC50 (P. falciparum K1 strain) of 10.4 µg/mL (≈ 41.2 µM), an IC50 [2] of 15.3 µg/mL (≈ 60.6 µM) and an IC50 (P. yoelii liver stages) of 4.88 µg/mL (≈ 19.3 µM). The IC50 (PfFabI) was 1.51 µM, the Ki (PfFabI; cofactor (NADH) varied) was 2.58 µM and the Ki (PfFabI; substrate (crotonyl-CoA) varied) was 2.89 µM and 2.9 µM. For the same molecule, the “Inhibition type PfFabI” value (PfFabI; with respect to crotonyl-CoA and the cofactor NADH) was “non-competitive”, the IC50 (PfFabZ) was 2.3 µM and the “Inhibition type PfFabZ” value (PfFabZ; with respect to the substrate) was “competitive”. For the same molecule, the IC50 (PfFabG) was 13.9 µM, the Ki (PfFabG; Ki PfFabG, cofactor NADPH varied) was 6 µM and the “Inhibition type PfFabG” value (PfFabG; cofactor NADPH varied) was “non-competitive”. For the same molecule, the “Inhibition type PfFabG” value (PfFabG; substrate acetoacetyl-CoA varied) was “competitive”, the IC50 [3] was 4.5 µg/mL (≈ 17.8 µM) and the IC50 at 72 h [4] was 85.9 µg/mL (≈ 340 µM). The “Toxicity against HepG2:CD81 hepatoma cells (in words)” value (HepG2:CD81 cells) was “non-toxic” and the Ki [5] was 2.1 ± 0.6 µM.
